Here are results for 16 compounds from ChEMBL document CHEMBL5120794, “Development of 5-hydroxyl-1-azabenzanthrone derivatives as dual binding site and selective acetylcholinesterase inhibitors” (Eur J Med Chem, 2022).

A word on the IC50: it is the concentration at which inhibition is half-maximal. A high value points to a need for much substance. A word on the inhibition: it is the change of the read-out against control, counted positive when it falls. High values mean strong suppression, low ones little suppression. As a reminder, the Papp is the rate of passage across a membrane or cell layer, normalised by area and donor concentration.

The target in one data set is Cholinesterase (Equus caballus, UniProt P81908).
The next data set concerns PC-12. Briefly: Cytoprotective activity against H2O2-induced oxidative damage in rat PC-12 cells assessed as cell viability at 1 uM preincubated for 4 hrs followed by H2O2 treatment for another 24 hrs by MTT assay. It is filed as functional, cell-based. Particulars: time 28.0 hrs.
For a further data set, the target named is Acetylcholinesterase (Electrophorus electricus, UniProt O42275). Briefly: Inhibition of Electrophorus electricus AchE using […] as substrate incubated for 10 mins followed by substrate addition measured at 0 to 180 secs by Ellman's method.
For data set [1], the target named is Amyloid-beta precursor protein (Homo sapiens) (UniProt P05067). Description: Inhibition of amyloid beta (1 to 42) (unknown origin) self-induced aggregation at 25 uM measured after 46 to 48 hrs by Thioflavin binding assay relative to control. Particulars: time 46-48 hrs.
A further data set is described as follows: in vitro. Particulars: PAMPA. Background: PAMPA measures passive passage across an artificial lipid membrane.

Activity calls are given as the source filed them. The calls are words filed in the database; no cut-off is given here. Where only a bound is given, the exact number is not on record here.

Chain of Amyloid-beta precursor protein (Homo sapiens) (P05067 whole entry): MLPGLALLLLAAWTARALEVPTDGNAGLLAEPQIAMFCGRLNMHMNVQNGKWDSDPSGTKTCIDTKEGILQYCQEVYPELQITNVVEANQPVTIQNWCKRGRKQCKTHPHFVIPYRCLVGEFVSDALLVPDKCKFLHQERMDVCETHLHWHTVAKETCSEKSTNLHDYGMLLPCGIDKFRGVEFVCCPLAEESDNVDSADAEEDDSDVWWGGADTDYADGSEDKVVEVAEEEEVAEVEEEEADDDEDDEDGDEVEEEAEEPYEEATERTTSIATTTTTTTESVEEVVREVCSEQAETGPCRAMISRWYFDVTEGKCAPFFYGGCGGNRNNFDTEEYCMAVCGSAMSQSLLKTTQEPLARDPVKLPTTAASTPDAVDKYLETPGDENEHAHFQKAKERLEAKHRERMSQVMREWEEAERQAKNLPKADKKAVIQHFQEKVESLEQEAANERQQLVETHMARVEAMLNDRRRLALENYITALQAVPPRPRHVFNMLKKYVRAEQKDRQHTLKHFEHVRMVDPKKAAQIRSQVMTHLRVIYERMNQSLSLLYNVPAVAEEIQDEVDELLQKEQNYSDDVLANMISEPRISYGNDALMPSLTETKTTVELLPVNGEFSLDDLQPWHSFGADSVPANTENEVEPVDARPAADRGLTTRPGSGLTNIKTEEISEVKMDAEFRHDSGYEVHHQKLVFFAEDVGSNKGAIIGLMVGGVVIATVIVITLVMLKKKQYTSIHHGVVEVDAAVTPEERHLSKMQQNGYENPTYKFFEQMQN
Chain of Cholinesterase (P81908 whole entry): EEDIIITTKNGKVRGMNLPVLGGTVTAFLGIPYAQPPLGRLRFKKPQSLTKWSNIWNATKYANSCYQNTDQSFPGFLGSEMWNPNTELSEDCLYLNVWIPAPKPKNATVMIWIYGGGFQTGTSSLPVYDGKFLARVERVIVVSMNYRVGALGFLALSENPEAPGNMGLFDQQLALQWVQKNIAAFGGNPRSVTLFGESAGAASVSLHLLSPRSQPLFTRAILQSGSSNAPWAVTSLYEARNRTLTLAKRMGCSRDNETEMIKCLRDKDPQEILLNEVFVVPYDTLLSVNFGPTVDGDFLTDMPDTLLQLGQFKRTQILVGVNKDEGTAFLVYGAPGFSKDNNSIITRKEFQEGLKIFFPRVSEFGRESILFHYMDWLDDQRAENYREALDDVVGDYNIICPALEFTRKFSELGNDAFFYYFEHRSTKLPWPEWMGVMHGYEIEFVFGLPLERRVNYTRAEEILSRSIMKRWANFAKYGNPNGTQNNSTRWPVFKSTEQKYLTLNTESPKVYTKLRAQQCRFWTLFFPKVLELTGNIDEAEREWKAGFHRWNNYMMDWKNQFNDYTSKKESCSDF
Chain of Acetylcholinesterase (O42275 whole entry): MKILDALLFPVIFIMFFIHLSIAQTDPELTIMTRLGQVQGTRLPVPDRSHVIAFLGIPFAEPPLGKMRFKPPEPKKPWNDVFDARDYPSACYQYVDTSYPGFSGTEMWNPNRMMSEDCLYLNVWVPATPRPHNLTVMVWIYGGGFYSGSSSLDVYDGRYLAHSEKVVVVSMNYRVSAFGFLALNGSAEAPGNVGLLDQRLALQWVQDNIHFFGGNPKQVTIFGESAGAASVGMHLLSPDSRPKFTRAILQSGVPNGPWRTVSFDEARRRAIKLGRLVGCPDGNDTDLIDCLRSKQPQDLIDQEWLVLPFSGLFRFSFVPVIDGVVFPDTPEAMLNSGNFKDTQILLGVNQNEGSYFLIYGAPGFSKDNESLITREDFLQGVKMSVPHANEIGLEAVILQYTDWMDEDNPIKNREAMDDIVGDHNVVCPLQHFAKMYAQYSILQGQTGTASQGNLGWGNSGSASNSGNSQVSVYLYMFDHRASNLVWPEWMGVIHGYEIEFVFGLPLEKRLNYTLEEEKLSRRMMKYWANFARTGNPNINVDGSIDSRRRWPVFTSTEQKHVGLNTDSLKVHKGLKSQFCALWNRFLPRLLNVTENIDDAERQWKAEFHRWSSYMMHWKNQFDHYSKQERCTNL

Turning to `CC1CCCCN1CCCCOc1cc2c3c(nccc3c1)-c1ccccc1C2=O` (configuration not stated), the IC50 came to 4.15 µM against Cholinesterase and 0.25 µM against Acetylcholinesterase. Besides, the outcome in the data set on PC-12 was Active. In data set [1], the inhibition is 34.8%.

As for `O=C1c2ccccc2-c2nccc3cc(OCCCCN4CCN(CCO)CC4)cc1c23`, the IC50 against Cholinesterase is greater than 100 µM; on Acetylcholinesterase, 0.92 µM. For the same compound, in the data set with PC-12, the result was Active. In data set [1], this compound registered an inhibition of 26.1%.

In the case of `O=C1c2ccccc2-c2nccc3cc(OCCCN4CCOCC4)cc1c23`, the IC50 was greater than 100 µM at Cholinesterase and 10.2 µM against Acetylcholinesterase. Also, the result with PC-12 was Active. This compound displayed an inhibition in data set [1] of 23.5%.

Turning to `O=C1c2ccccc2-c2nccc3cc(OCCCN4CCCCC4)cc1c23`, the IC50 against Cholinesterase is 35.3 µM; against Acetylcholinesterase, 0.14 µM. Moreover, the result with PC-12 was Active. Besides, in data set [1], the inhibition came out at 41.2%.

For `CCn1cc(C(=O)O)c(=O)c2cc(F)c(N3CCNC(C)C3)c(F)c21` (configuration not stated) [LOMEFLOXACIN], the Papp in “in vitro” came out at 9 nm/s.

Consider `O=C1c2ccccc2-c2nccc3cc(OCCN4CCCCC4)cc1c23`, for which the IC50 was 6.71 µM against Cholinesterase and 3.69 µM on Acetylcholinesterase. Also, the result in the data set on PC-12 was Active. The same compound had an inhibition in data set [1] of 27.5%.

Regarding `CC1CCCCN1CCOc1cc2c3c(nccc3c1)-c1ccccc1C2=O` (configuration not stated), the IC50 was greater than 100 µM against Cholinesterase and 1.31 µM against Acetylcholinesterase. Moreover, in the data set on PC-12, the outcome was Active. Besides, the inhibition in data set [1] was 16.2%.

Compound `Clc1cccc(Cl)c1N=C1NCCN1` [CLONIDINE] returned an apparent permeability coefficient (Papp) in “in vitro” of 57 nm/s.

`CN1CCN(CCCOc2cc3c4c(nccc4c2)-c2ccccc2C3=O)CC1`: the IC50 at Cholinesterase is greater than 100 µM; against Acetylcholinesterase, 0.82 µM. Further, the inhibition in data set [1] is 29.1%.

As for `O=C1c2ccccc2-c2nccc3cc(OCCCCN4CCOCC4)cc1c23`, the IC50 is greater than 100 µM at Cholinesterase and 7.3 µM against Acetylcholinesterase. The result in the data set on PC-12 was Active. Moreover, the inhibition in data set [1] was 13.1%.

With `O=C1c2ccccc2-c2nccc3cc(OCCN4CCOCC4)cc1c23`, the half-maximal inhibitory concentration (IC50) was greater than 100 µM against Cholinesterase and 19.7 µM at Acetylcholinesterase. The result in the data set on PC-12 was Active. The compound further yielded an inhibition in data set [1] of 24.4%.

With `O=C1c2ccccc2-c2nccc3cc(OCCCN4CCN(CCO)CC4)cc1c23`, the half-inhibitory concentration (IC50) on Cholinesterase is greater than 100 µM; at Acetylcholinesterase it was 0.19 µM. Besides, the outcome in the data set on PC-12 was Active. Besides, the inhibition in data set [1] worked out at 9.7%.

Turning to `O=C1c2ccccc2-c2nccc3cc(OCCCCN4CCCCC4)cc1c23`, the 50% inhibitory concentration (IC50) on Cholinesterase was found to be 15.4 µM; against Acetylcholinesterase, 0.15 µM. Further, in the data set on PC-12, the outcome was Active. The same compound came in with an inhibition in data set [1] of 32.1%.

With `CN1CCN(CCCCOc2cc3c4c(nccc4c2)-c2ccccc2C3=O)CC1`, the IC50 against Cholinesterase is greater than 100 µM; against Acetylcholinesterase, 1.41 µM. For the same compound, the outcome with PC-12 was Active. In data set [1], the inhibition came out at 25.4%.

As to `O=C1c2ccccc2-c2nccc3cc(OCCN4CCN(CCO)CC4)cc1c23`, the IC50 was greater than 100 µM on Cholinesterase and 0.42 µM against Acetylcholinesterase. The result in the data set on PC-12 was Active. The inhibition in data set [1] is 14.9%.

For `CN1CCN(CCOc2cc3c4c(nccc4c2)-c2ccccc2C3=O)CC1`, the IC50 against Cholinesterase was greater than 100 µM; against Acetylcholinesterase, 0.86 µM. Besides, the outcome in the data set with PC-12 was Active. The same compound yielded an inhibition in data set [1] of 18.5%.
